Consider 102 compounds from ChEMBL document CHEMBL3507680, “University of Dundee, Gates Library screen for HepG2 cell viability”.

The series can be described thus: Human HepG2 cell viability assay in 384 well format. The format is toxicity, cell-based. As to conditions: HepG2 cells, read-out: Inhibition. Set-up: dose 125 nL, time 70.5 hour; concentration not given beside the values.
Regarding `Cc1nccc(CNc2cc(N3CCCC3CO)ncn2)n1` (configuration not stated), the cytotoxicity at 70.5 h is 2.68%.
As for `Cc1cc(C)n(CCCn2cncc2-c2ccc3c(c2)CC(C)N3C)n1` (configuration not stated), the cytotoxicity at 70.5 h amounted to 2%.
As to `FC(F)(F)c1ccnc(N2CCCN(Cc3ccccn3)CC2)n1`, the cytotoxicity at 70.5 h worked out at 11.3%.
Take `COCCc1ncc(CN2CCCC(C(=O)c3ccccc3)C2)cn1` (configuration not stated): the cytotoxicity at 70.5 h was -26%.
`CCc1nc(CNCC2CCCN2c2cc(NC)ncn2)cs1` (configuration not stated): the cytotoxicity at 70.5 h was -4.75%.
In the case of `Cc1cnn(CC2CN(Cc3cccnc3)CCO2)c1` (configuration not stated), the cytotoxicity at 70.5 h is -6.35%.
As to `O=C(c1cnccn1)N1CCC2(CCN(Cc3ccsc3)CC2)CC1`, the cytotoxicity at 70.5 h is -2.48%.
As to `Cc1ccc(C2CCCN(C(=O)c3cnn(C)c3)C2)nc1` (configuration not stated), the cytotoxicity at 70.5 h is 24.3%.
For the compound `CCOC(=O)[C@H]1CNC[C@@H]1C(F)(F)F`, the cytotoxicity at 70.5 h is -11.1%.
Consider `C=C(C)COc1ccccc1NC(=O)NC1CCOCC1`, for which the cytotoxicity at 70.5 h was 2.28%.
For `Cc1ncsc1CN1CCN(C)C2(CCC(=O)N(CCO)CC2)C1` (configuration not stated), the cytotoxicity at 70.5 h turned out to be 3.92%.
Regarding `Cc1ccc(C(C)(O)CNC(=O)c2sccc2OC(F)F)o1` (configuration not stated), the cytotoxicity at 70.5 h was -12%.
On to `Cc1nc(CCC(=O)NC2CCC2)cc(C2CCCNC2)n1` (configuration not stated), for which the cytotoxicity at 70.5 h was -9.96%.
In the case of `CCn1ccnc1CN(C)Cc1nc(Cc2ccccc2Cl)no1`, the cytotoxicity at 70.5 h was found to be 0.631%.
With `CCC(C)N(Cc1ccc(C)cc1)Cc1c[nH]c(C)n1` (configuration not stated) the figure was -5.02%; with `Cc1cc(C)n(C2CN(C(=O)Cn3c(=O)c(C)nc4ccccc43)C2)n1`, 30%; with `Cc1nn(C)c(C)c1CCC(=O)NCc1csc(N2CCCC2)n1`, 2.01%.
Take `COc1cccc(CC2CCCN2CC(N)=O)c1` (configuration not stated): the cytotoxicity at 70.5 h was -8.71%.
Turning to `Cn1cc(C2CCCN2CCCn2c(=O)oc3ccccc32)cn1` (configuration not stated), the cytotoxicity at 70.5 h was 12.6%.
Regarding `c1cncc(OCc2noc3c2CN(Cc2ccco2)CC3)c1`, the cytotoxicity at 70.5 h is -17.4%.
With `CNc1nc(CNC(=O)Nc2ccccc2SC)cs1` the figure was 3.31%; with `COCC(c1cccc(C(F)(F)F)c1)N(C)C(=O)c1cc(C)n[nH]1` (configuration not stated), 18.4%; with `Cn1ccnc1CC1CCCN(C(=O)Nc2cccn(C)c2=O)C1` (configuration not stated), -2.41%.
With `CN(C)c1ncc2c(n1)C1(CCN(Cc3ccccc3)C1)COC2` (configuration not stated) the figure was -5.25%; with `Cn1ccc2c(C(=O)NC3CN4CCC3CC4)cccc21` (configuration not stated), -32.2%.
For `CC(C)c1n[nH]c(C2CN(CCc3cccs3)CCO2)n1` (configuration not stated), the cytotoxicity at 70.5 h is -6.41%.
Take `CCN(CC)CCNC(=O)CCc1c(C)nn(-c2ccc(Cl)cc2)c1C`: the cytotoxicity at 70.5 h is -7.15%.
With `CC(C)N1CCC(CC(=O)NCCc2cc(O)ncn2)CC1` the figure was -11.7%.
Take `Cn1cc(N2CCC3(CCCN(C(=O)c4ccnn4C)C3)C2=O)cn1` (configuration not stated): the cytotoxicity at 70.5 h was -4.7%.
For `CSCc1cc(F)ccc1CNCc1cccc(O)c1`, the cytotoxicity at 70.5 h is -5.38%.
Regarding `CN(Cc1nnc(C2CCC2)o1)C(C(N)=O)c1cccc(F)c1` (configuration not stated), the cytotoxicity at 70.5 h was -1.86%.
In the case of `Cc1ccc(CN(C)C(=O)CN2CCOC(Cn3cncn3)C2)o1` (configuration not stated), the cytotoxicity at 70.5 h worked out at 9.12%.
With `Cc1n[nH]cc1CNC(C(=O)N1CCOCC1)c1ccccc1` (configuration not stated) the figure was 15.2%; with `O=C(c1csc2nc(-c3ccc(Cl)cc3)cn12)N1CCCC(CO)C1` (configuration not stated), -5.49%.
Regarding `CC(C)[C@H](NC(=O)NC1CCS(=O)(=O)C1)C(=O)NCc1ccccc1` (some centres not stated), the cytotoxicity at 70.5 h was -19%.
With `CC1=N[C@@]2(CC[C@@H]3CN(Cc4cccc(Cl)c4)C[C@@H]32)C(=O)N1CC1CC1` the figure was -14.9%; with `CCCOC1CCCN(C(=O)Cn2cccc(C(F)(F)F)c2=O)C1` (configuration not stated), -6.8%.
The result for `Cc1cnn(CCNCc2nc(COc3ccc(F)cc3)no2)c1` reads 6.22%; that for `CC(=O)N1CC[C@H]2OCC[C@@H](C(=O)NCc3ccco3)[C@@H]2C1`, 26.4%.
`COCCN1C(=O)CC(c2cccnc2)C12CCN(C)CC2` (configuration not stated): the cytotoxicity at 70.5 h is 0.172%.
As to `Cc1ccccc1N1CCN(C(=O)CCc2nncn2C)C(C)C1` (configuration not stated), the cytotoxicity at 70.5 h was -1.67%.
On to `COc1cccc(S(=O)(=O)NC(=O)COC2CCCC2)c1`, for which the cytotoxicity at 70.5 h was -3.13%.
Regarding `O=C(C1=CCCC1)N1CCC2(CC1)CC(Oc1cccnc1)CO2` (configuration not stated), the cytotoxicity at 70.5 h was -0.424%.
For the compound `Cc1nccn1-c1ccc(=O)n(CCNC(=O)c2ccccn2)n1`, the cytotoxicity at 70.5 h was -6.46%.
As for `CS(=O)(=O)CCC(=O)N(Cc1c(F)cccc1F)C1CCCC1`, the cytotoxicity at 70.5 h worked out at 21%.
On to `CO[C@H]1COCCN(C(=O)c2ccc(C#N)cc2)C1`, for which the cytotoxicity at 70.5 h was found to be 9.9%.
With `O=C(NCCc1cccnc1)c1ccc2nccn2c1`, the cytotoxicity at 70.5 h was -16.8%.
As to `O=C(NC[C@]12COC[C@H]1CN(Cc1ccncc1)C2)c1ccno1`, the cytotoxicity at 70.5 h is -7.21%.
For the compound `O=C(Cc1ccc2c(c1)CCCC2)NCCNc1cnccn1`, the cytotoxicity at 70.5 h was -11.7%.
With `O=C(Cc1cccs1)NCC1(O)CCSCC1` the figure was -3.88%; with `CCCS(=O)(=O)N1CCCC(CCC(=O)N(C)CCc2ccccn2)C1` (configuration not stated), -0.331%.
The result for `Cn1nnc(C2(NC(=O)c3ccccc3)CCCC2)n1` reads -8.79%.
With `CC(C)CN1CCCC1c1ccc(C(=O)Nc2ccc3[nH]nnc3c2)s1` (configuration not stated) the figure was -0.75%.
Turning to `Cc1nn(CCO)cc1CN1CCC(C(C)N2CCCC2)CC1` (configuration not stated), the cytotoxicity at 70.5 h is -3.99%.
Take `COc1cccc(Cn2c(C)c(C)oc2=O)c1OC`: the cytotoxicity at 70.5 h was 1.78%.
For `CC1CCN(S(=O)(=O)NC(C)Cc2ccco2)CC1` (configuration not stated), the cytotoxicity at 70.5 h is -4.62%.
As to `Cc1nn(C)c(Cl)c1C1CCCN1Cc1nc(C2CC2)no1` (configuration not stated), the cytotoxicity at 70.5 h was -7.26%.
For `Cc1ncc2c(c1CNC(=O)C1(C)CC1)CCNC2`, the cytotoxicity at 70.5 h was -7.68%.
The result for `c1ccc(C[C@H]2[C@H](N3CCOCC3)CCN2Cc2cccnc2)cc1` reads 2.51%.
Turning to `O=C1CCC2(CCNCC2)CN1Cc1nnc2ccccn12`, the cytotoxicity at 70.5 h is -5.01%.
Consider `CCCNC(=O)c1cc(OC)c(OC)cc1N(C)S(C)(=O)=O`, for which the cytotoxicity at 70.5 h was -8.53%.
In the case of `CCc1nc(CN(C)C2CCN(CC(=O)N(C)C)C2)no1` (configuration not stated), the cytotoxicity at 70.5 h was -5.61%.
In the case of `CN(Cc1ccncc1)C1CC2(CCN(c3ncc(F)cn3)CC2)C1`, the cytotoxicity at 70.5 h was determined as 2.52%.
As for `Cc1ccnc2c1NC(=O)CN2C(=O)CCc1cccs1`, the cytotoxicity at 70.5 h was -5.29%.
As to `FC(F)(F)c1[nH]nc2c1CN(Cc1ccccc1)CC2`, the cytotoxicity at 70.5 h is -11.1%.
For `Cc1ccoc1-c1nnc(CN2CCn3c(nnc3C(C)C)C2)o1`, the cytotoxicity at 70.5 h was -2.59%.
Consider `Cc1cccc(C(=O)N2CCCC(c3nccn3Cc3cscn3)C2)n1` (configuration not stated), for which the cytotoxicity at 70.5 h is -5.05%.
The result for `CCCSCC(=O)N1C[C@H]2CC[C@@H]1CN(c1ncccn1)C2` reads -14.1%; that for `CCS(=O)(=O)N1CCN(C(C)(C)CO)CC1`, -3.71%.
In the case of `CNC(=O)CN1CCC(CN(C)Cc2ccncc2Cl)CC1`, the cytotoxicity at 70.5 h was -3.24%.
Consider `Cc1ccc(CC(=O)N2C[C@@H](CN(C)C)[C@@H](CO)C2)cc1C`, for which the cytotoxicity at 70.5 h was -2.62%.
In the case of `CCc1ccc(C2c3nc[nH]c3CCN2Cc2nccn2CC)nc1` (configuration not stated), the cytotoxicity at 70.5 h is 33.1%.
On to `COCC(=O)N1CCC2(CCN(c3cnn(C)c3)C2=O)C1` (configuration not stated), for which the cytotoxicity at 70.5 h worked out at 34.5%.
Regarding `O=C(CCc1cccnc1)N1CCCCC1c1ccn2ccnc2n1` (configuration not stated), the cytotoxicity at 70.5 h was -6.74%.
With `COC(=O)c1cc(CN2CCN(c3ncccc3C)CC2)ccc1O` the figure was 39.9%; with `NCCNS(=O)(=O)Cc1ccc(Br)cc1`, -0.385%.
In the case of `O=C(N[C@@H]1CCNC[C@H]1O)c1ccc(F)c(F)c1`, the cytotoxicity at 70.5 h was -5.14%.
`CCc1noc(CN2CCN(C(=O)COC)CC2)n1`: the cytotoxicity at 70.5 h was determined as 6.94%.
Turning to `O=C(O)c1ccccc1-c1ccc(CN2CCC(CO)CC2)cn1`, the cytotoxicity at 70.5 h is -9.48%.
Consider `Cc1c(CN2CCc3nc4sccc4c(=O)n3CC2)cnn1C`, for which the cytotoxicity at 70.5 h is -6.65%.
The result for `COCCC1COC2(CCN(C(C)=O)CC2)C1` (configuration not stated) reads -5.06%; that for `COCc1cnc2n1CCN(C1CCCC1)C2C` (configuration not stated), 5.67%.
Take `NC(=O)C1CCCN1Cc1cccc(NC(=O)c2cccs2)c1` (configuration not stated): the cytotoxicity at 70.5 h came out at 2.36%.
As for `COc1cc(OC)cc(C(=O)NCCCNc2ncccn2)c1`, the cytotoxicity at 70.5 h is -7.17%.
`CN(C)CCCC(=O)NC1CC(C)(C)Cc2nc(C(C)(C)C)ncc21` (configuration not stated): the cytotoxicity at 70.5 h is -17.7%.
`Cc1cc(C(=O)Nc2ccc3oc(=O)n(CCN(C)C)c3c2)c(C)o1`: the cytotoxicity at 70.5 h came out at 9.45%.
As for `Cc1cn[nH]c1C1CCCCN1C(=O)CCN1CCCCCC1` (configuration not stated), the cytotoxicity at 70.5 h was -36.7%.
Consider `Cc1ncnc(N2CCCN(c3nc4ccccc4s3)CC2)c1C`, for which the cytotoxicity at 70.5 h stood at 7.7%.
As to `COC1CN(CCO)S(=O)(=O)c2ccccc21` (configuration not stated), the cytotoxicity at 70.5 h was -7.83%.
On to `Cc1nn(C)c(Cl)c1C(=O)NCC1(C(N)=O)CCOCC1`, for which the cytotoxicity at 70.5 h is -11.7%.
The result for `COc1cccc(OC)c1CN1CC(O)CN(S(C)(=O)=O)CC1=O` (configuration not stated) reads 25.6%; that for `O=C(NCC1CC1)C1CN(C(=O)c2ccco2)CC12CCOCC2` (configuration not stated), -1.19%; that for `CCc1nc(C(=O)NCc2ccc(N3CCNC(=O)C3)c(F)c2)c[nH]1`, 5.08%.
As to `Cc1cc(NC(=O)NCc2nccn2C)ccc1OC(C)C`, the cytotoxicity at 70.5 h is -6.18%.
Turning to `CCc1nc(CNC(=O)Nc2ccc(C(=O)NC)cc2C)cs1`, the cytotoxicity at 70.5 h is -22.3%.
For the compound `Cc1ccccc1CN(Cc1ccncc1)CC(C)C`, the cytotoxicity at 70.5 h was -4.55%.
For `COc1cccc(-c2noc(-c3ccc(NCCCN)nc3)n2)c1OC`, the cytotoxicity at 70.5 h amounted to 2.21%.
Turning to `CC(NC(=O)NCCNc1ccccn1)c1cccs1` (configuration not stated), the cytotoxicity at 70.5 h is -1.83%.
Turning to `O=C(Cc1ccccc1Cl)Nc1cnn(C2CCOC2)c1` (configuration not stated), the cytotoxicity at 70.5 h is -14%.
For the compound `O=C(Cn1cnc(-c2ccccc2)cc1=O)Nc1ccncc1`, the cytotoxicity at 70.5 h is -9.96%.
In the case of `NC(=O)C1CCCN1CCCc1ccc(C(F)(F)F)cc1` (configuration not stated), the cytotoxicity at 70.5 h is -5.39%.
With `CCc1n[nH]c(C2CN(Cc3nnc(C4CC4)n3C)CCO2)n1` (configuration not stated) the figure was 27.9%.
